According to ChEMBL document CHEMBL1151135, “The Chemistry of Taxol, a Clinically Useful Anticancer Agent” (1990):
Converted amounts (≈) assume the structure as drawn.

Legend:
J774.2 = experiment: Cytotoxicity against mouse J774.2 cells; assay type: functional
KB = experiment: Cytotoxicity against human KB cells; assay type: functional; conditions: for EC50: Homo sapiens, KB, read-out: ED50 (the source's name)
Bos taurus = species: Bos taurus; experiment: Inhibition of bovine brain tubulin assembly assessed as drug level causing decrease in tubulin depolymerization rate

Structure (SMILES) | EC50 (KB) | further results
CC(=O)O[C@H]1C(=O)[C@]2(C)[C@@H](OC(C)=O)C[C@H]3OC[C@@]3(OC(C)=O)[C@H]2[C@H](OC(=O)c2ccccc2)[C@]2(O)C[C@H](OC(=O)[C@H](O)[C@@H](NC(=O)c3ccccc3)c3ccccc3)C(C)=C1C2(C)C [PACLITAXEL C7 ACETYLCARBOXYLIC ACID ESTER] | – | ED50 (J774.2): 9 ×10⁻⁸ M
CC(=O)O[C@@]12CO[C@@H]1C[C@H](O)[C@@]1(C)C(=O)[C@H](O)C3=C(C)[C@@H](O)C[C@@](O)([C@@H](OC(=O)c4ccccc4)[C@H]21)C3(C)C | 1 µg/mL (≈ 1.84 µM) | –
CC(=O)OC[C@@]1(O)[C@H]2[C@H](OC(=O)c3ccccc3)[C@]3(O)C[C@H](OC(=O)[C@H](O)[C@@H](NC(=O)c4ccccc4)c4ccccc4)C(C)=C([C@@H](OC(C)=O)C(=O)[C@]2(C)[C@@H](O)C[C@@H]1O)C3(C)C | 0.2 µg/mL (≈ 0.229 µM) | –
CC(=O)O[C@H]1C(=O)[C@]2(C)C(=O)C[C@H]3OC[C@@]3(OC(C)=O)[C@H]2[C@H](OC(=O)c2ccccc2)[C@]2(O)C[C@H](OC(=O)[C@H](O)[C@@H](NC(=O)c3ccccc3)c3ccccc3)C(C)=C1C2(C)C | 0.5 µg/mL (≈ 0.587 µM) | –
CC(=O)O[C@H]1C(=O)[C@]2(C)[C@H](O)C[C@H]3OC[C@@]3(OC(C)=O)[C@H]2[C@H](OC(=O)c2ccccc2)[C@]2(O)C[C@H](OC(=O)[C@H](O)[C@@H](NC(=O)c3ccccc3)c3ccccc3)C(C)=C1C2(C)C | – | ED50 (KB): 3 ×10⁻⁵ ug/ml
CC(=O)O[C@H]1C(=O)[C@]2(C)[C@@H](OC(=O)c3ccc(C4(C(F)(F)F)N=N4)cc3)C[C@H]3OC[C@@]3(OC(C)=O)[C@H]2[C@H](OC(=O)c2ccccc2)[C@]2(O)C[C@H](OC(=O)[C@H](O)[C@@H](NC(=O)c3ccccc3)c3ccccc3)C(C)=C1C2(C)C | – | ID50 (Bos taurus): 340 nM
CC(=O)O[C@H]1C(=O)[C@]2(C)[C@@H](OC(=O)c3ccccc3)C[C@H]3OC[C@@]3(OC(C)=O)[C@H]2[C@H](OC(=O)c2ccccc2)[C@]2(O)C[C@H](OC(=O)[C@H](O)[C@@H](NC(=O)c3ccccc3)c3ccccc3)C(C)=C1C2(C)C | – | ID50 (Bos taurus): 170 nM
CC(=O)O[C@H]1C(=O)[C@]2(C)[C@@H](OC(C)=O)C[C@H]3OC[C@@]3(OC(C)=O)[C@H]2[C@H](OC(=O)c2ccccc2)[C@]2(O)C[C@H](OC(=O)[C@H](OC(C)=O)[C@@H](NC(=O)c3ccccc3)c3ccccc3)C(C)=C1C2(C)C | 0.03 µg/mL (≈ 0.032 µM) | –
C=C(C)[C@@]12C[C@H](OC(=O)[C@H](OC(C)=O)[C@@H](NC(=O)c3ccccc3)c3ccccc3)C(C)=C1[C@@H](OC(C)=O)C(=O)[C@]1(C)[C@@H](OC(C)=O)C[C@H](OC(C)=O)[C@@](O)(COC(C)=O)[C@H]1[C@@H]2OC(=O)c1ccccc1 | 2.5 µg/mL (≈ 2.55 µM) | –
CC(=O)O[C@H]1C(=O)[C@@]2(C)[C@H]([C@H](OC(=O)c3ccccc3)[C@]3(O)C[C@H](OC(=O)[C@H](O)[C@@H](NC(=O)c4ccccc4)c4ccccc4)C(C)=C1C3(C)C)[C@]1(OC(C)=O)CO[C@@H]1C[C@@H]2O | – | ID50 (Bos taurus): 100 nM
CC(=O)O[C@H]1C(=O)[C@@]2(C)[C@H]([C@H](OC(=O)c3ccccc3)[C@]3(O)C[C@H](OC(=O)[C@H](OC(C)=O)[C@@H](NC(=O)c4ccccc4)c4ccccc4)C(C)=C1C3(C)C)[C@]1(OC(C)=O)CO[C@@H]1C[C@@H]2O | – | ED50 (J774.2): 3 ×10⁻⁷ M
C=C1[C@@H](O)C[C@@H](OC(C)=O)[C@@]2(C)[C@@H](OC(C)=O)[C@H](OC(C)=O)C3=C(C)[C@@H](OC(C)=O)C[C@@](O)([C@@H](OC(C)=O)[C@H]12)C3(C)C [DECINNAMOYLTAXININE] | 28 µg/mL (≈ 47.1 µM) | –
CC(=O)O[C@@]12CO[C@@H]1C[C@H](O)[C@@]1(C)C(=O)C(=O)C3=C(C)[C@@H](OC(=O)[C@H](O)[C@@H](NC(=O)c4ccccc4)c4ccccc4)C[C@@](O)([C@@H](OC(=O)c4ccccc4)[C@H]21)C3(C)C | 0.02 µg/mL (≈ 0.0247 µM) | –
CC(=O)O[C@H]1C(=O)[C@]2(C)C(=O)C[C@H]3OC[C@@]3(OC(C)=O)[C@H]2[C@H](OC(=O)c2ccccc2)[C@]2(O)C[C@H](OC(=O)C(=O)[C@@H](NC(=O)c3ccccc3)c3ccccc3)C(C)=C1C2(C)C | 12 µg/mL (≈ 14.1 µM) | –
CC(=O)O[C@H]1C(=O)[C@@H](C)C([C@@]2(OC(C)=O)CCC(=O)OC2)[C@H](OC(=O)c2ccccc2)[C@]2(O)C[C@H](OC(=O)[C@H](O)[C@@H](NC(=O)c3ccccc3)c3ccccc3)C(C)=C1C2(C)C (stereo partly specified) | 2 µg/mL (≈ 2.34 µM) | –
CC(=O)O[C@H]1C[C@H]2OC[C@@]2(OC(C)=O)[C@H]2[C@H](OC(=O)c3ccccc3)[C@]3(O)C[C@H](OC(=O)[C@H](OC(C)=O)[C@@H](NC(=O)c4ccccc4)c4ccccc4)C(C)=C([C@@H](O)C(=O)[C@]12C)C3(C)C | < 0.01 µg/mL | –
